Like-named read-outs stand apart in the source and are kept apart here.

As usually defined, the EC50 is the concentration at which the effect is half-maximal.

The subject of test [1] is T125A mutant virus (HIV-1 NL-432 recombinant molecular clone, IN gene). The experiment in a line: HIV replication inhibition assay against integrase 124/125 mutant virus (Test Example 2). It is filed as cell-based. On the procedure: Persistently HIV (HTLV-IIIB strain) infected human T cell strain Molt-4 clone8 was cultured in RPMI-1640 medium supplemented with 10% fetal bovine serum and the supernatant was filtered, then the virus titer was measured and stored at −80° C. Polymorphic mutations in HIV-1-infected patients have been observed in amino acids 124 and 125 on the HIV-1 integrase (IN) gene. A point mutation was introduced on the amino acids 124 and/or 125 of IN gene of the HIV-1 NL-432 recombinant molecular clone to generate a mutant virus plasmid construct. These mutant virus plasmids were transfected into 293T cells, and after two days, the supernatant was filtered and then the virus titer was measured and stored at −80° C. Each anti-HIV active substance was diluted with culture medium described above to the designated concentration, which was dispensed into 96-well microtiter plate by 50 μL. Next, 100 μL of MT-4 cell suspension (2.5×10^4 cells) was dispensed into each well, then 50 μl of HIV-containing supernatant diluted with culture medium described above was added thereto (60 pfu (plaque forming unit)).
Cells were cultured at 37° C. in CO2 incubator for four days, then 30 μL of MTT (3-(4,5-dimethylthiazole-2-yl)-2,5-diphenyltetrazolyum bromide) reagent (5 mg/mL in PBS) was added to all wells followed by incubation for 1 hour. In this step, MTT was reduced to insoluble formazan in living cells. To elute generated formazan, 150 μL of the culture supernatant was removed from all wells, then 150 μL of cell lysis solution (10% Triton X-100 and 0.4% (v/v)-HCl containing isopropanol) was added thereto, followed by shaking with a plate mixer. The formazan was measured with micro plate reader at OD: 560 nm and 690 nm (reference wavelength) and the result was compared with the reference wells. EC50 means the compound concentration at which 50% of cytotoxicity caused by virus infection is inhibited.

A further test deals with HIV. It is filed as cell-based. As to conditions: EC50 in the presence of human serum (25%) versus without human serum, MT-4 cells. On the procedure:
To confirm the influence of human serum on anti-HIV activity as necessary, human serum was added and determined EC50 in this condition. Human serum (100 μL/well) was dispensed into each anti-HIV active substance at a designated concentration dispensed 50 μL each in advance into a 96-well microtiter plate, and the plate was incubate at room temperature for 1 hour. To the serum-free plate, only culture medium (100 μL/well) was dispensed into 96-well microtiter plate. MT-4 cells (3×10^4 cells/well) was infected with 3 μL/well of HIV solution diluted to an appropriate concentration (600 pfu/50 μL) by the required number of wells and incubated at 37° C. for 1 hour. The infected cells were centrifuged at 1200 rpm for 5 minutes, the supernatant was discarded, and the infected cells were dispersed into culture medium for the required number of wells at 50 μL/well. Infected cell suspension was dispensed into a 96-well microtiter plate of which anti-HIV active substance and human serum prepared in advance. The cell mixture was mixed with a plate mixer and cultured in a CO2 incubator for 4 days. The EC50 in the presence of human serum was calculated in the same manner as in Test Example 1 and the ratio of EC50 in the presence of human serum and EC50 in the absence of human serum was calculated as the potency shift value. […]

The mark [2] stands for this setting: Human immunodeficiency virus 1, MT4, read-out: EC50 against T125A mutant virus, T125A mutant virus (HIV-1 NL-432 IN gene), MT-4 cells, MTT.
Where [3] appears, read: T125A mutant virus (HIV-1 NL-432 IN gene), MT-4 cells, MTT, read-out: EC50 against T125A mutant virus.

As for `CCOCc1cnc(N2CCn3c(C)cc4c(-c5ccc(Cl)cc5)c([C@H](OC(C)(C)C)C(=O)O)c(C)c2c43)nc1` [Compound I-314], the EC50 in test [1] (setting [2]) is 0.0053 µM. Besides, the Potency shift value in the test with HIV came to 41. `COc1cnc(N2c3c(C)c([C@H](OC(C)(C)C)C(=O)O)c(-c4ccc(C)cc4)c4cc(C)n(c34)C[C@H]2C)nc1` [Compound I-241]: the EC50 in test [1] (setting [2]) amounted to 0.0022 µM. Also, the Potency shift value in the test with HIV is 8.4.

`Cc1ccc(-c2c([C@H](OC(C)(C)C)C(=O)O)c(C)c3c4c2cc(C)n4CCN3c2cnc(C)cn2)cc1` [Compound I-264]: the EC50 in test [1] (setting [2]) was 0.0044 µM. For the same compound, in the test on HIV, the Potency shift value stood at 26. For `Cc1c([C@H](OC(C)(C)C)C(=O)O)c(-c2ccc(Cl)cc2)c2cc(C)n3c2c1N(C(N)=S)CC3` [Compound I-166] the same measures were 0.062 µM and 3.5. For `Cc1c([C@H](OC(C)(C)C)C(=O)O)c(-c2ccc(Cl)cc2)c2cc(C)n3c2c1N(c1nccs1)CC3` [Compound I-165] the same measures were 0.0069 µM and 8.3. For `COc1cnc(N2c3c(C)c([C@H](OC(C)(C)C)C(=O)O)c(-c4ccc(Cl)cc4)c4cc(C)n(c34)C3CN(C(=O)c4ccccc4)CC32)nc1` (stereo partly drawn) [Compound I-322] the same measures were 0.044 µM and 15. On to `COc1cnc(N2CCn3c(C)cc4c(-c5ccc(Cl)cc5)c([C@H](OCC5CC5)C(=O)O)c(C)c2c43)nc1` [Compound I-298], for which the Potency shift value with HIV was 11.

For `Cc1ccc(-c2c([C@H](OC(C)(C)C)C(=O)O)c(C)c3c4c2cc(C)n4CCN3CCF)cc1` [Compound I-209], the EC50 in test [1] (setting [3]) turned out to be 0.016 µM. Besides, the Potency shift value in the test with HIV was 24. With `Cc1c([C@H](OC(C)(C)C)C(=O)O)c(-c2ccc(Cl)cc2)c2cc(C)n3c2c1N(C(=O)Nc1ccccc1N)CC3` [Compound I-218], the EC50 in test [1] (setting [3]) came to 0.02 µM. The Potency shift value with HIV turned out to be 5.5. Take `COCc1cnc(N2CCn3c(C)cc4c(-c5ccc(Cl)cc5)c([C@H](OC(C)(C)C)C(=O)O)c(C)c2c43)nc1` [Compound I-312]: the half-maximal effective concentration (EC50) in test [1] (setting [2]) stood at 0.0046 µM. Moreover, the Potency shift value in the test with HIV stood at 37. Regarding `Cc1ccc(-c2c([C@H](OC(C)(C)C)C(=O)O)c(C)c3c4c2cc(C)n4CCN3c2ncc(C3=CCN(C)CC3)cn2)cc1` [Compound I-212], the EC50 in test [1] (setting [3]) was 0.0068 µM. Besides, the Potency shift value in the test on HIV was 3.9. For `COc1cnc(N2CCn3c(C)cc4c(-c5ccc(Cl)cc5)c([C@H](OCCO)C(=O)O)c(C)c2c43)nc1` [Compound I-317], the Potency shift value with HIV amounted to 1.3. Still for that read-out and setting: as for `Cc1c([C@H](OC(C)(C)C)C(=O)O)c(-c2ccc(Cl)cc2)c2cc(C)n3c2c1N(c1ncc(OCOCC[Si](C)(C)C)cn1)CC3` [Compound I-233], the figure is 12. Take `Cc1c([C@H](OC(C)(C)C)C(=O)O)c(-c2ccc(Cl)cc2)c2cc(C)n3c2c1N(C(=O)C(=O)N(C)C)[C@@H](C)C3` [Compound I-168]: in the test on HIV, the Potency shift value stood at 2.9. Consider `CCCCO[C@H](C(=O)O)c1c(C)c2c3c(cc(C)n3CCN2c2ncc(OC)cn2)c1-c1ccc(Cl)cc1` [Compound I-325], for which the Potency shift value with HIV is reported as 5.4.

As for `Cc1c([C@H](OC(C)(C)C)C(=O)O)c(-c2ccc(Cl)cc2)c2cc(C)n3c2c1N(C)C(c1ccccc1)C3` (stereo partly drawn) [Compound I-333], in the test with HIV, the Potency shift value is 6.4. The same measure, in the same setting: as for `Cc1c([C@H](OC(C)(C)C)C(=O)O)c(-c2ccc(Cl)cc2)c2cc(C)n3c2c1N(C)C1CNCC13` (stereo partly drawn) [Compound I-237], the figure is 2.4; as for `Cc1c([C@H](OC(C)(C)C)C(=O)O)c(-c2ccc(F)cc2)c2cc(C)n3c2c1N(CC(=O)N(C)C)CC3` [Compound I-161], 1.9; as for `CCO[C@H](C(=O)O)c1c(C)c2c3c(cc(C)n3CCN2c2ncc(OC)cn2)c1-c1ccc(Cl)cc1` [Compound I-296], 2.1. Same read-out and setting: as for `Cc1ccc(-c2c([C@H](OC(C)(C)C)C(=O)O)c(C)c3c4c2cc(C)n4CCN3c2cccc(C(F)(F)F)n2)cc1` [Compound I-285], the figure is 5.1. With `Cc1c([C@H](OC(C)(C)C)C(=O)O)c(-c2ccc(Cl)cc2)c2cc(C)n3c2c1N(Cc1cncnc1)CC3` [Compound I-153], in test [1] (setting [2]), the EC50 was determined as 0.011 µM. Still for that read-out and setting: the figure for `Cc1c([C@H](OC(C)(C)C)C(=O)O)c(-c2ccc(Cl)cc2)c2cc(C)n3c2c1N(S(C)(=O)=O)CCC3` [Compound I-078] is 0.021 µM; for `Cc1csc(N2CCn3c(C)cc4c(-c5ccc(Cl)cc5)c([C@H](OC(C)(C)C)C(=O)O)c(C)c2c43)n1` [Compound I-147] it is 0.016 µM. Regarding `CCCCCO[C@H](C(=O)O)c1c(C)c2c3c(cc(C)n3CCN2c2ncc(OC)cn2)c1-c1ccc(Cl)cc1` [Compound I-326], in the test on HIV, the Potency shift value was 5.8. With `[2H]C1([2H])N(C)c2c(C)c([C@H](OC(C)(C)C)C(=O)O)c(-c3ccc(Cl)cc3)c3cc(C)n(c23)C1([2H])[2H]` [Compound I-066], the half-maximal effective concentration (EC50) in test [1] (setting [2]) was found to be 0.004 µM. Turning to `Cc1c([C@H](OC(C)(C)C)C(=O)O)c(-c2ccc(Cl)cc2)c2cc(C)n3c2c1N(C1CCOCC1)CC3` [Compound I-149], in test [1] (setting [2]), the half-maximal effective concentration (EC50) stood at 0.015 µM. With `Cc1ccc(-c2c([C@H](OC(C)(C)C)C(=O)O)c(C)c3c4c2cc(C)n4CCN3CCN2CCOCC2)cc1` [Compound I-131], the EC50 in test [1] (setting [2]) worked out at 0.015 µM. Still for that read-out and setting: as for `CCC(=O)N1c2c(C)c([C@H](OC(C)(C)C)C(=O)O)c(-c3ccc(Cl)cc3)c3cc(C)n(c23)C[C@@H]1C` [Compound I-069], the figure is 0.016 µM. On the same count and under the same terms, the figure for `Cc1c(-c2c([C@H](OC(C)(C)C)C(=O)O)c(C)c3c4c2cc(C)n4CCN3C)ccc2c1NCCO2` [Compound I-160] is 0.07 µM; for `Cc1c([C@H](OC(C)(C)C)C(=O)O)c(-c2ccc(Cl)cc2)c2cc(C)n3c2c1N(c1ncc(OCc2ccc(F)cc2)cn1)CC3` [Compound I-236] it is 0.0099 µM. Still for that read-out and setting: the figure for `Cc1c([C@H](OC(C)(C)C)C(=O)O)c(-c2ccc(Cl)cc2)c2cc(C)n3c2c1N(CCN(C)C)[C@@H](C)C3` [Compound I-113] is 0.022 µM. In the case of `Cc1ccc(-c2c([C@H](OC(C)(C)C)C(=O)O)c(C)c3c4c2cc(C)n4CCN3c2ncc(OCCNS(C)(=O)=O)cn2)cc1` [Compound I-222], in test [1] (setting [3]), the concentration giving a half-maximal response (EC50) came to 0.089 µM. Regarding `CCCO[C@H](C(=O)O)c1c(C)c2c3c(cc(C)n3CCN2c2ncc(OC)cn2)c1-c1ccc(Cl)cc1` [Compound I-297], the Potency shift value in the test with HIV was 7.6. On to `Cc1c([C@H](OC(C)(C)C)C(=O)O)c(-c2ccc(Cl)cc2)c2cc(C)n3c2c1N(S(=O)(=O)c1cccnc1)CC3` [Compound I-139], for which, in test [1] (setting [2]), the EC50 is 0.0068 µM. Regarding `[2H]C1([2H])N(C)c2c(C)c([C@H](OC(C)(C)C)C(=O)O)c(-c3ccc(F)cc3)c3cc(C)n(c23)C1([2H])[2H]` [Compound I-105], the EC50 in test [1] (setting [2]) turned out to be 0.011 µM. With `Cc1c([C@H](OC(C)(C)C)C(=O)O)c(-c2ccc(Cl)cc2)c2cc(C)n3c2c1N(c1ncc(C2=CCOCC2)cn1)CC3` [Compound I-300], in test [1] (setting [2]), the EC50 was found to be 0.0046 µM. On the same count and under the same terms, as for `Cc1c([C@H](OC(C)(C)C)C(=O)O)c(-c2ccc(Cl)cc2)c2cc(C)n3c2c1N(Cc1cccnc1)CC3` [Compound I-136], the figure is 0.0084 µM; as for `[2H]C1([2H])N(C)c2c(C)c([C@H](OC(C)(C)C)C(=O)O)c(-c3ccc(Cl)cc3)c3cc(Cl)n(c23)C1([2H])[2H]` [Compound I-115], 0.011 µM; as for `COC[C@@H]1Cn2c(C)cc3c(-c4ccc(Cl)cc4)c([C@H](OC(C)(C)C)C(=O)O)c(C)c(c32)N1S(C)(=O)=O` [Compound I-087], 0.02 µM. On the same count and under the same terms, the figure for `[2H]C1([2H])N(S(C)(=O)=O)c2c(C)c([C@H](OC(C)(C)C)C(=O)O)c(-c3ccc(Cl)cc3)c3c(F)c(C)n(c23)C1([2H])[2H]` [Compound I-040] is 0.011 µM. The same measure, in the same setting: as for `Cc1c([C@H](OC(C)(C)C)C(=O)O)c(-c2ccc(Cl)cc2)c2cc(C)n3c2c1N(c1ncc(OC(C)C)cn1)CC3` [Compound I-261], the figure is 0.0037 µM.

The values above are taken from patent US10494380B2, “Nitrogen-containing tricyclic derivatives having HIV replication inhibitory activity” (priority 2015, dated 2019).
